Measured values from PMC7842083 (Molecular pharmaceutics, 2020).
Like-named read-outs stand apart in the source and are kept apart here.

Key:
[1] = 120 min, mean ± SD
[2] = oral administration; cited from earlier work
in vitro = settings: pH 6; for Papp at 120 min: WT, mouse; for Papp at 120 min, 0.1 µCi/mL: APP/PS1, mouse
[3] = for time at which plasma concentrations reached a maximum: oral administration
in vivo = settings: female, po

CN1C(=O)CN=C(c2ccccc2)c2cc(Cl)ccc21 [Diazepam, diazepam]
% of initial amount at 2 h (absorbed through jejunal tissue) ([1]; jejunum from APP/PS1 mice, listed as 3H-Diazepam): 0.52 ± 0.12%
% of initial amount at 2 h (absorbed through jejunal tissue) ([1]; jejunum from APP/PS1 mice, listed as 3H-diazepam): 0.52%
% of initial amount at 2 h (absorbed through jejunal tissue) ([1]; jejunum from WT mice, listed as 3H-Diazepam): 0.42 ± 0.12%
% of initial amount at 2 h (absorbed through jejunal tissue) ([1]; jejunum from WT mice, listed as 3H-diazepam): 0.42%

CCN(C)C(=O)Oc1cccc([C@H](C)N(C)C)c1 [rivastigmine]
plasma concentrations in people with AD compared to healthy volunteers [2]: significantly higher

CCCCC(=O)N(Cc1ccc(-c2ccccc2-c2nnn[nH]2)cc1)[C@H](C(=O)O)C(C)C [Valsartan, valsartan]
Papp at 120 min (in vitro): 55.8 ± 16.7 ×10⁻⁶ cm/s
time at which plasma concentrations reached a maximum ([3]; APP/PS1 mice): 1 h
time at which plasma concentrations reached a maximum ([3]; WT mice): 1 h

Cn1c(=O)c2c(ncn2C)n(C)c1=O [Caffeine, caffeine]
Papp at 120 min, 0.1 µCi/mL (in vitro): 27.2 ± 13.8 ×10⁻⁶ cm/s
Papp at 120 min (in vitro): 31.4 ± 10.1 ×10⁻⁶ cm/s
Kp (in vivo; APP/PS1 (B6C3-Tg (APPswe, PSEN1dE9)85Dbo/Mmjax), mouse): 0.63 to 2.82
Kp (in vivo; WT littermates of APP/PS1, mouse): 1.07 to 2.78
time post-dose at which Cmax appeared ([3]; oral dose of 5 mg/kg, present study): 0.5 h
% of initial amount at 2 h (absorbed through jejunal tissue) ([1]; jejunum from APP/PS1 mice, listed as 14C-Caffeine): 0.46 ± 0.14%
% of initial amount at 2 h (absorbed through jejunal tissue) ([1]; jejunum from APP/PS1 mice, listed as 14C-caffeine): 0.46%
% of initial amount at 2 h (absorbed through jejunal tissue) ([1]; jejunum from WT mice, listed as 14C-Caffeine): 0.40 ± 0.09%
% of initial amount at 2 h (absorbed through jejunal tissue) ([1]; jejunum from WT mice, listed as 14C-caffeine): 0.40%

C[C@H]1O[C@@H](O[C@H]2[C@@H](O)C[C@H](O[C@H]3[C@@H](O)C[C@H](O[C@H]4CC[C@@]5(C)[C@H](CC[C@@H]6[C@@H]5C[C@@H](O)[C@]5(C)[C@@H](C7=CC(=O)OC7)CC[C@]65O)C4)O[C@@H]3C)O[C@@H]2C)C[C@H](O)[C@@H]1O [Digoxin, digoxin]
Papp at 120 min, 0.1 µCi/mL (in vitro): 14.5 ± 11 ×10⁻⁶ cm/s
Papp at 120 min (in vitro): 64.2 ± 39.4 ×10⁻⁶ cm/s
time at which plasma concentrations reached a maximum ([3]; APP/PS1 mice): 0.5 h
time at which plasma concentrations reached a maximum ([3]; WT mice): 0.5 h
% of initial amount at 2 h (absorbed through jejunal tissue) ([1]; jejunum from APP/PS1 mice, listed as 3H-Digoxin): 0.22 ± 0.11 %
% of initial amount at 2 h (absorbed through jejunal tissue) ([1]; jejunum from APP/PS1 mice, listed as 3H-digoxin): 0.22 ± 0.11%
% of initial amount at 2 h (absorbed through jejunal tissue) ([1]; jejunum from WT mice, listed as 3H-Digoxin): 0.85 ± 0.30%
% of initial amount at 2 h (absorbed through jejunal tissue) ([1]; jejunum from WT mice, listed as 3H-digoxin): 0.85 ± 0.3%

OC[C@@H](O)[C@@H](O)[C@H](O)[C@H](O)CO [^14C-Mannitol, mannitol]
Papp at 120 min, 0.1 µCi/mL (in vitro): 6 ± 3.4 ×10⁻⁶ cm/s
Papp at 120 min (in vitro): 10.7 ± 3.7 ×10⁻⁶ cm/s
% of initial amount at 2 h (absorbed through jejunal tissue) ([1]; jejunum from APP/PS1 mice): 0.12 ± 0.04 %
% of initial amount at 2 h (absorbed through jejunal tissue) ([1]; jejunum from WT mice): 0.17 ± 0.05%
